“And” between values parts separate entries of the source, which are not always exact repeats. Equal values may be shown once. Toxic doses and inconclusive results are not listed.
Test system: L1210 leukemia ip in BDF1 mice, survival T/C
Experiment: NCI In Vivo Anticancer Drug Screen. Data for tumor model L1210 Leukemia (intraperitoneal) in B6D2F1 (BDF1) mice
Settings: endpoint: mean survival time, higher = longer survival
Outline: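 Transplanted-tumor mice were given test agent; controls received vehicle only. Survival readings from the two groups were divided (treated over control).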

[1] = dose: 100.0 mg/kg/injection, schedule: Q01DX001 (ip), vehicle: carboxymethylcellulose (CMC)
[2] = dose: 100.0 mg/kg/injection, schedule: Q01DX009 (ip), vehicle: saline
[3] = dose: 200.0 mg/kg/injection, schedule: Q01DX001 (ip), vehicle: carboxymethylcellulose (CMC)
[4] = dose: 200.0 mg/kg/injection, schedule: Q01DX009 (ip), vehicle: saline
[5] = dose: 400.0 mg/kg/injection, schedule: Q01DX001 (ip), vehicle: carboxymethylcellulose (CMC)
[6] = dose: 400.0 mg/kg/injection, schedule: Q01DX009 (ip), vehicle: saline
[7] = dose: 100.0 mg/kg/injection, schedule: Q04DX003 (ip), vehicle: saline
[8] = dose: 200.0 mg/kg/injection, schedule: Q04DX003 (ip), vehicle: saline
[9] = dose: 400.0 mg/kg/injection, schedule: Q04DX003 (ip), vehicle: saline
[10] = dose: 100.0 mg/kg/injection, schedule: Q01DX009 (ip), vehicle: Klucel (hydroxypropylcellulose) (HPC)
[11] = dose: 100.0 mg/kg/injection, schedule: Q04DX003 (ip), vehicle: Klucel (hydroxypropylcellulose) (HPC)
[12] = dose: 200.0 mg/kg/injection, schedule: Q01DX009 (ip), vehicle: Klucel (hydroxypropylcellulose) (HPC)
[13] = dose: 400.0 mg/kg/injection, schedule: Q01DX009 (ip), vehicle: Klucel (hydroxypropylcellulose) (HPC)

SMILES: C[N+]1(CCCl)CC[N+](C)(CCCl)CC1 (stereo unspecified)
- T/C [1]: 101 % of control
- T/C (dose: 100.0 mg/kg/injection, schedule: Q01DX009 (ip), vehicle: carboxymethylcellulose (CMC)): 97 % of control and 92 % of control
- T/C [2]: 97 % of control
- T/C (dose: 100.0 mg/kg/injection, schedule: Q04DX002 (ip), vehicle: carboxymethylcellulose (CMC)): 97 % of control
- T/C (dose: 100.0 mg/kg/injection, schedule: Q04DX002 (ip), vehicle: saline): 112 % of control
- T/C (dose: 100.0 mg/kg/injection, schedule: Q04DX003 (ip), vehicle: carboxymethylcellulose (CMC)): 97 % of control
- T/C [3]: 105 % of control
- T/C (dose: 200.0 mg/kg/injection, schedule: Q01DX009 (ip), vehicle: carboxymethylcellulose (CMC)): 97 % of control and 100 % of control
- T/C [4]: 101 % of control
- T/C (dose: 200.0 mg/kg/injection, schedule: Q04DX002 (ip), vehicle: carboxymethylcellulose (CMC)): 100 % of control and 103 % of control
- T/C (dose: 200.0 mg/kg/injection, schedule: Q04DX002 (ip), vehicle: saline): 105 % of control
- T/C (dose: 200.0 mg/kg/injection, schedule: Q04DX003 (ip), vehicle: carboxymethylcellulose (CMC)): 100 % of control
- T/C [5]: 97 % of control
- T/C (dose: 400.0 mg/kg/injection, schedule: Q01DX009 (ip), vehicle: carboxymethylcellulose (CMC)): 101 % of control and 91 % of control
- T/C [6]: 101 % of control
- T/C (dose: 400.0 mg/kg/injection, schedule: Q04DX002 (ip), vehicle: carboxymethylcellulose (CMC)): 93 % of control
- T/C (dose: 400.0 mg/kg/injection, schedule: Q04DX003 (ip), vehicle: carboxymethylcellulose (CMC)): 103 % of control

SMILES: C[N+](C)(C)Cc1c[nH]c2ccsc12
- T/C (dose: 12.5 mg/kg/injection, schedule: Q01DX001 (ip), vehicle: saline with Tween-80): 107 % of control

SMILES: Cc1ccc(NC(=O)Nc2ccc(Cl)cc2)c(C)c1
- T/C [1]: 101 % of control
- T/C [3]: 106 % of control
- T/C [5]: 98 % of control

SMILES: COc1ccc(C[Si](C)C)cc1
- T/C [7]: 93 % of control
- T/C [8]: 98 % of control
- T/C [9]: 94 % of control

SMILES: CC(=O)Nc1nc(-c2ccc([N+](=O)[O-])cc2)c(CCC=O)c(=O)[nH]1
- T/C [10]: 88 % of control
- T/C [11]: 90 % of control
- T/C [12]: 94 % of control
- T/C (dose: 200.0 mg/kg/injection, schedule: Q04DX003 (ip), vehicle: Klucel (hydroxypropylcellulose) (HPC)): 98 % of control
- T/C [13]: 102 % of control
- T/C (dose: 400.0 mg/kg/injection, schedule: Q04DX003 (ip), vehicle: Klucel (hydroxypropylcellulose) (HPC)): 98 % of control

SMILES: CC(=C(C#N)C#N)c1ccc(Cl)cc1
- T/C (dose: 12.5 mg/kg/injection, schedule: Q01DX001 (ip), vehicle: Klucel (hydroxypropylcellulose) (HPC)): 112 % of control
- T/C (dose: 25.0 mg/kg/injection, schedule: Q01DX001 (ip), vehicle: Klucel (hydroxypropylcellulose) (HPC)): 91 % of control
- T/C (dose: 50.0 mg/kg/injection, schedule: Q01DX001 (ip), vehicle: Klucel (hydroxypropylcellulose) (HPC)): 112 % of control
- T/C [11]: 108 % of control

SMILES: CCCCCCCCc1ccc(NC(N)=S)cc1
- T/C (dose: 3.12 mg/kg/injection, schedule: Q01DX009 (ip), vehicle: saline): 104 % of control
- T/C (dose: 6.25 mg/kg/injection, schedule: Q01DX009 (ip), vehicle: saline): 107 % of control
- T/C (dose: 12.5 mg/kg/injection, schedule: Q01DX009 (ip), vehicle: saline with Tween-80): 92 % of control
- T/C (dose: 12.5 mg/kg/injection, schedule: Q01DX009 (ip), vehicle: saline): 111 % of control

SMILES: Cc1ccc(Cl)cc1NC(=O)c1ccccc1Cl
- T/C [10]: 100 % of control
- T/C [2]: 100 % of control
- T/C [7]: 95 % of control
- T/C [12]: 94 % of control
- T/C [4]: 105 % of control
- T/C [8]: 122 % of control
- T/C [13]: 87 % of control
- T/C [6]: 100 % of control
- T/C [9]: 111 % of control

SMILES: O=[N+]([O-])c1c(Cl)ccc2nsnc12
- T/C (dose: 12.5 mg/kg/injection, schedule: Q04DX003 (ip), vehicle: Klucel (hydroxypropylcellulose) (HPC)): 96 % of control
- T/C (dose: 25.0 mg/kg/injection, schedule: Q04DX003 (ip), vehicle: Klucel (hydroxypropylcellulose) (HPC)): 93 % of control

SMILES: CN=C(NC)c1ccc(NC(=O)CCc2ccc(C(=O)Nc3ccc(C(=NC)NC)cc3)cc2)cc1
- T/C (dose: 0.75 mg/kg/injection, schedule: Q01DX Z (ip), vehicle: carboxymethylcellulose (CMC)): 94 % of control
- T/C (dose: 1.5 mg/kg/injection, schedule: Q01DX Z (ip), vehicle: carboxymethylcellulose (CMC)): 90 % of control
- T/C (dose: 3.0 mg/kg/injection, schedule: Q01DX Z (ip), vehicle: carboxymethylcellulose (CMC)): 93 % of control
- T/C (dose: 6.0 mg/kg/injection, schedule: Q01DX Z (ip), vehicle: carboxymethylcellulose (CMC)): 113 % of control
- T/C (dose: 10.5 mg/kg/injection, schedule: Q01DX Z (ip), vehicle: carboxymethylcellulose (CMC)): 168 % of control
- T/C (dose: 50.0 mg/kg/injection, schedule: Q01DX Z (oral), vehicle: carboxymethylcellulose (CMC)): 101 % of control
- T/C (dose: 100.0 mg/kg/injection, schedule: Q01DX Z (oral), vehicle: carboxymethylcellulose (CMC)): 105 % of control
- T/C (dose: 200.0 mg/kg/injection, schedule: Q01DX Z (oral), vehicle: carboxymethylcellulose (CMC)): 103 % of control
- T/C (dose: 400.0 mg/kg/injection, schedule: Q01DX Z (oral), vehicle: carboxymethylcellulose (CMC)): 94 % of control

SMILES: NNC(=O)c1c(C(N)=O)n[nH]c1C1OC(COCc2ccccc2)C(OCc2ccccc2)C1OCc1ccccc1 (stereo unspecified)
- T/C (dose: 100.0 mg/kg/injection, schedule: Q01DX005 (ip), vehicle: saline): 97 % of control and 93 % of control
- T/C (dose: 200.0 mg/kg/injection, schedule: Q01DX005 (ip), vehicle: saline): 100 % of control and 101 % of control

SMILES: Clc1ccc([PH+](c2ccc(Cl)cc2)c2ccc(Cl)cc2)cc1.Clc1ccc([PH+](c2ccc(Cl)cc2)c2ccc(Cl)cc2)cc1.[Cl][Hg][Cl]
- T/C (dose: 6.25 mg/kg/injection, schedule: Q01DX009 (ip), vehicle: Klucel (hydroxypropylcellulose) (HPC)): 108 % of control
- T/C (dose: 12.5 mg/kg/injection, schedule: Q01DX009 (ip), vehicle: Klucel (hydroxypropylcellulose) (HPC)): 94 % of control
- T/C (dose: 25.0 mg/kg/injection, schedule: Q01DX009 (ip), vehicle: Klucel (hydroxypropylcellulose) (HPC)): 97 % of control
- T/C (dose: 50.0 mg/kg/injection, schedule: Q01DX009 (ip), vehicle: Klucel (hydroxypropylcellulose) (HPC)): 96 % of control

SMILES: CNC(=O)Nc1ccc(S(=O)(=O)Nc2nc(C)cc(C)n2)cc1
- T/C (dose: 50.0 mg/kg/injection, schedule: Q01DX009 (ip), vehicle: saline with Tween-80): 96 % of control
- T/C (dose: 100.0 mg/kg/injection, schedule: Q01DX009 (ip), vehicle: saline with Tween-80): 96 % of control
- T/C (dose: 200.0 mg/kg/injection, schedule: Q01DX009 (ip), vehicle: saline with Tween-80): 93 % of control

SMILES: Cc1ccc(S(=O)(=O)N2CCN(S(=O)(=O)c3ccc(C)c([N+](=O)[O-])c3)CC2)cc1[N+](=O)[O-]
- T/C (dose: 3.12 mg/kg/injection, schedule: Q01DX009 (ip), vehicle: clinical formulation): 103 % of control
- T/C (dose: 6.25 mg/kg/injection, schedule: Q01DX009 (ip), vehicle: clinical formulation): 100 % of control
- T/C (dose: 6.25 mg/kg/injection, schedule: Q04DX003 (ip), vehicle: clinical formulation): 103 % of control
- T/C (dose: 12.5 mg/kg/injection, schedule: Q01DX009 (ip), vehicle: clinical formulation): 107 % of control
- T/C (dose: 12.5 mg/kg/injection, schedule: Q04DX003 (ip), vehicle: clinical formulation): 108 % of control
- T/C (dose: 25.0 mg/kg/injection, schedule: Q01DX009 (ip), vehicle: clinical formulation): 115 % of control
- T/C (dose: 25.0 mg/kg/injection, schedule: Q04DX003 (ip), vehicle: clinical formulation): 116 % of control
- T/C (dose: 50.0 mg/kg/injection, schedule: Q01DX009 (ip), vehicle: clinical formulation): 95 % of control
- T/C (dose: 50.0 mg/kg/injection, schedule: Q04DX003 (ip), vehicle: clinical formulation): 124 % of control

SMILES: CC(=O)Nc1ccc(S(=O)(=O)Nc2cc(C)ccc2C)cc1
- T/C [10]: 94 % of control
- T/C [12]: 103 % of control
- T/C [13]: 103 % of control

SMILES: CC(C)(O)C(Cl)S(=O)c1ccccc1 (stereo unspecified)
- T/C (dose: 75.0 mg/kg/injection, schedule: Q03DX002 (ip), vehicle: saline with Tween-80): 113 % of control
- T/C (dose: 300.0 mg/kg/injection, schedule: Q03DX002 (ip), vehicle: saline with Tween-80): 117 % of control

From PubChem BioAssay AID248 (DTP/NCI, 2004)
